Key:
K562/ADR = assay: cells; type: cell-based; conditions: Homo sapiens, 24 h
[1] = system: CBL-resistant K562 cell line; type: cell-based, Human; conditions: K562, 24-h incubation, Annexin-V
MM.1R = assay: cells; type: cell-based; conditions: Homo sapiens, 24 h
[2] = system: primary chronic lymphocytic leukemia (CLL) cells; type: cell-based, Human; conditions: treatment with 50 μM
NIH3T3 = assay: cells; type: cell-based; conditions: Mus musculus, NIH3T3, 24 h
[3] = system: 17.7 kb segment of nDNA at the b-globin gene and 8.9 kb fragment of mtDNA; assay: DNA damage by PCR amplification of nDNA and mtDNA; type: cell-based; conditions: PCR amplification after cell treatment
MM.1S = assay: cells; type: cell-based; conditions: Homo sapiens, MM1.S, 24 h
U937 = assay: cells; type: cell-based; conditions: Homo sapiens, U-937, 24 h
[4] = system: peripheral blood mononuclear cells (PBMCs) from normal healthy donors; conditions: treatment with 50 μM
HeLa = assay: cells; type: cell-based; conditions: Homo sapiens, 24 h
K562 = assay: cells; type: cell-based; conditions: Homo sapiens, K562, 24 h
LO2 = assay: cells; type: cell-based; conditions: Homo sapiens, L02, 24 h

## O=C(O)CCCc1ccc(N(CCCl)CCCl)cc1 [CBL, chlorambucil]
K562/ADR
  IC50: > 1000 µM
[1]
  apoptotic cell population: 11.24%
MM.1R
  IC50: 236 ± 16.9 µM
[2]
  CLL cells killed: 32.3%
NIH3T3
  IC50: > 600 µM
[3]
  DNA damage in nuclear and mitochondrial genome: primarily damaged nDNA with very few mitochondrial lesions
MM.1S
  IC50: 47.4 ± 5.08 µM
U937
  IC50: 45.7 ± 3.71 µM
[4]
  PBMCs killed: 11%
HeLa
  IC50: 321 ± 33.2 µM
K562
  IC50: 417 ± 27.9 µM
LO2
  IC50: > 600 µM

From PMC5508973 (ChemMedChem, 2017)
